The source of these data is US7057052B2, “Heterocyclic quinones as pharmaceutical agents” (Duke University, priority 2002, dated 2006).

What all share (assay type): biochemical
One experiment concerns the target T1, Cdc25A (Homo sapiens, UniProt P30304).
T1 sequence (P30304 1-524): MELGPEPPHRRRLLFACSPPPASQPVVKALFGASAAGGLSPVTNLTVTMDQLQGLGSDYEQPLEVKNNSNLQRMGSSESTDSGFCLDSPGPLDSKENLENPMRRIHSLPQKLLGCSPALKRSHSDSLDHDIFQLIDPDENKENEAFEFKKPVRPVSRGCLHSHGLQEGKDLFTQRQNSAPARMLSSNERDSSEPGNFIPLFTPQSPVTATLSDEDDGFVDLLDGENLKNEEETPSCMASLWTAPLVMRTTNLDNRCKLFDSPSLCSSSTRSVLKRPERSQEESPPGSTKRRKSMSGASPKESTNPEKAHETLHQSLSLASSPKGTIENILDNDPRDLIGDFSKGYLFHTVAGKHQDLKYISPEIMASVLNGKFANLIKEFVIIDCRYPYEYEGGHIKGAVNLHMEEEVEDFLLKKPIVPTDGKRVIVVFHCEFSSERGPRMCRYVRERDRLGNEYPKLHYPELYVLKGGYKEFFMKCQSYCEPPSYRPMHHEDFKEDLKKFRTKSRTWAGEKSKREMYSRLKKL
Put plainly: Cdc25A phosphatase inhibition screen at 50 μM. As to conditions: for inhibition at 50 µM: read-out: Percent Inhibition at 50 uM compound, Cdc25 A. Here is the method: (§1) Using procedures known to those skilled in the art, the compounds listed in Table 3 were screened against Cdc25A, Cdc25B, and Cdc25C at 50 μM. […] To analyze these effects further, the compounds were then screened against Cdc25B in a 3 pt. IC-50, using 1, 7 and 50 μM. Several of the compounds were also screened with an 8 pt. IC-50 process, using 0.1–10 μM, allowing determination of Hill slopes.

In the next experiment the target is T2, Cdc25B (Homo sapiens, UniProt P30305).
T2 sequence (P30305 1-580): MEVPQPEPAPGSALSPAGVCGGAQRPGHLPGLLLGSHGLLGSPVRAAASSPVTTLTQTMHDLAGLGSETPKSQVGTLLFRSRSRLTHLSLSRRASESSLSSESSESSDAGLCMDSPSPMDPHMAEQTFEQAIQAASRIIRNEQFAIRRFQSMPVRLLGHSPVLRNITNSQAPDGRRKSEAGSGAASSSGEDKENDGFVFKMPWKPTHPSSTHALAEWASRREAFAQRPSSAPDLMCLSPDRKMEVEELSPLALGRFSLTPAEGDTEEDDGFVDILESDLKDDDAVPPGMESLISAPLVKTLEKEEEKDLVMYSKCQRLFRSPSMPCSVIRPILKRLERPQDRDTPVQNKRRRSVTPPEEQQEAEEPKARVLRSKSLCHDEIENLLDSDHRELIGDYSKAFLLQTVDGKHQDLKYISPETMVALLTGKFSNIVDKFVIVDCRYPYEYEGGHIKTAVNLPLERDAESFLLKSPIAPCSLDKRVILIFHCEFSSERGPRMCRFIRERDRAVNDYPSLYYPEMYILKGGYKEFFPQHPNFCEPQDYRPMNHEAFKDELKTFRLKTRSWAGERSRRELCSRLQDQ
Put plainly: Cdc25B phosphatase inhibition (50 μM screen, 3 pt. and 8 pt. IC-50). Particulars: for IC50: Cdc25B; for inhibition at 50 µM: read-out: Percent Inhibition at 50 uM compound, Cdc25 B. As for the experimental part: as §1

For the next experiment, the target named is T3, Cdc25C (Homo sapiens, UniProt P30307).
T3 sequence (P30307 1-473): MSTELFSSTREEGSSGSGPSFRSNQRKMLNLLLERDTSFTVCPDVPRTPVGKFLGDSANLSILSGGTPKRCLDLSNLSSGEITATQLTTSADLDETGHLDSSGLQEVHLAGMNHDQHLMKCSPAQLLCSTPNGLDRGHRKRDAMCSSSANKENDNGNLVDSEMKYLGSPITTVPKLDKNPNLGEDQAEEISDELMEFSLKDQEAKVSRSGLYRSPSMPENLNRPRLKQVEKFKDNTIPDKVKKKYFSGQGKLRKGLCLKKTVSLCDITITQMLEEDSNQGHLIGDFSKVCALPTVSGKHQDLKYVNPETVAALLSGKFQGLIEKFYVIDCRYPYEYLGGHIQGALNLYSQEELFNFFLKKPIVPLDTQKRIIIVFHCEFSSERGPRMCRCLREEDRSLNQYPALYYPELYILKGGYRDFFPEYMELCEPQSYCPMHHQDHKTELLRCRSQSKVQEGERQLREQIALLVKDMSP
The experiment in a line: Cdc25C phosphatase inhibition screen at 50 μM. Particulars: for inhibition at 50 µM: read-out: Percent Inhibition at 50 uM compound, Cdc25 C. As for the experimental part: as §1

Setting [1] is: 3 pt. IC-50 using 1, 7 and 50 μM, read-out: IC50 (3 pt).
The mark [2] stands for this setting: 8 pt. IC-50 using 0.1–10 μM, read-out: IC50 (8 pt).

Like-named read-outs stand apart in the source and are kept apart here.

A word on the IC50: it is the concentration that gives 50% inhibition. What is called inhibition is the percentage by which the read-out fell short of the control.

In the case of `Cc1cccc2c(C3=C(O)C(=O)c4cccc(O)c4C3=O)c[nH]c12` [4E, 2,5-dihydoxy-3-(7-methyl-1H-indol-3-yl)-[1,4]naphthoquinone], the “Percent Inhibition at 50 uM compound, Cdc25 A” value at Cdc25A (50 uM compound) stood at 10%. The “Percent Inhibition at 50 uM compound, Cdc25 B” value on Cdc25B (50 uM compound) turned out to be 0%. In addition, at Cdc25B (setting [1]), the 50% inhibitory concentration (IC50) was 69.3 µM. In addition, on Cdc25C (50 uM compound), the “Percent Inhibition at 50 uM compound, Cdc25 C” value was found to be 0%.

In the case of `COc1ccc2[nH]cc(C3=C(O)C(=O)C=C(O)C3=O)c2c1` [4F, 2,5-dihydroxy-3-(5-methoxy-1H-indol-3-yl)-[1,4]-benzoquinone], the inhibition at 50 µM at Cdc25A was 15%; at Cdc25B it was 0%; on Cdc25C it was 0%. Also, the IC50 at Cdc25B (setting [1]) came to 6 µM.

Regarding `O=C1C=C(O)C(=O)C(c2c[nH]c3ccc(OCc4ccccc4)cc23)=C1O` [4G, 2,5-dihydroxy-3-(5-benzyloxy-1H-indol-3-yl)-[1,4]-benzoquinone], the inhibition at 50 µM on Cdc25A was 96%; on Cdc25B, 50%; at Cdc25C, 26%. The IC50 at Cdc25B (setting [1]) is 1.8 µM.

Consider `Cc1ccc2[nH]cc(C3=C(O)C(=O)C=C(O)C3=O)c2c1` [4H, 2,5-dihydroxy-3-(5-methyl-1H-indol-3-yl)-[1,4]-benzoquinone], for which the inhibition at 50 µM at Cdc25A stood at 94%; on Cdc25B it was 61%; at Cdc25C, 55%. In addition, the IC50 on Cdc25B (setting [1]) is 2.5 µM.

Regarding `O=C1C=C(O)C(=O)C(c2c[nH]c3cc(F)ccc23)=C1O` [5A, 2,5-dihydroxy-3-(6-fluoro-1H-indol-3-yl)-[1,4]-benzoquinone], the inhibition at 50 µM on Cdc25A worked out at 91%; at Cdc25B, 48%; at Cdc25C, 90%. Besides, the results for the IC50 at Cdc25B (setting [1]) and at Cdc25B (setting [2]) were 2 µM and 6.8 µM, respectively.

As to `O=C1C=C(O)C(=O)C(c2c[nH]c3cc(Cl)ccc23)=C1O` [5B, 2,5-dihydroxy-3-(6-chloro-1H-indol-3-yl)-[1,4]-benzoquinone], the inhibition at 50 µM at Cdc25A is 99%; on Cdc25B, 92%; on Cdc25C, 81%. The IC50 on Cdc25B (setting [1]) was 2.4 µM.

For the compound `O=C1C=C(O)C(=O)C(c2c[nH]c3cc(OCc4ccccc4)ccc23)=C1O` [5C, 2,5-dihydroxy-3-(6-benzyloxy-1H-indol-3-yl)-[1,4]-benzoquinone], the values for the inhibition at 50 µM on Cdc25A, on Cdc25B and at Cdc25C were 89%, 97% and 92%, respectively. Moreover, at Cdc25B (setting [1]), the IC50 is 1.7 µM.

Consider `Cc1ccc2c(C3=C(O)C(=O)C=C(O)C3=O)c[nH]c2c1` [5D, 2,5-dihydroxy-3-(6-methyl-1H-indol-3-yl)-[1,4]-benzoquinone], for which the inhibition at 50 µM is 80% at Cdc25A, 16% on Cdc25B and 28% on Cdc25C. The IC50 on Cdc25B (setting [1]) amounted to 32.3 µM.

Regarding `COC1=CC(=O)C(OC)=C(c2c[nH]c3c(F)cccc23)C1=O` [5E, 2,5-dimethoxy-3-(7-fluoro-1H-indol-3-yl)-[1,4]-benzoquinone], the inhibition at 50 µM at Cdc25A came to 29%; at Cdc25B it was 67%; on Cdc25C it was 68%. The 50% inhibitory concentration (IC50) on Cdc25B (setting [1]) turned out to be 125 µM.

For `O=C1C=C(O)C(=O)C(c2c[nH]c3c(Cl)cccc23)=C1O` [5F, 2,5-dihydroxy-3-(7-chloro-1H-indol-3-yl)-[1,4]-benzoquinone], the results for the inhibition at 50 µM at Cdc25A, on Cdc25B and at Cdc25C were 92%, 23% and 54%, respectively. For the same compound, the half-maximal inhibitory concentration (IC50) at Cdc25B (setting [1]) came out at 38 µM.

For `O=C1C=C(O)C(=O)C(c2c[nH]c3c(Br)cccc23)=C1O` [5G, 2,5-dihydroxy-3-(7-bromo-1H-indol-3-yl)-[1,4]-benzoquinone], the inhibition at 50 µM at Cdc25A stood at 93%; on Cdc25B, 45%; at Cdc25C, 88%. In addition, the IC50 on Cdc25B (setting [1]) came out at 2.1 µM.

`Cc1cccc2c(C3=C(O)C(=O)C=C(O)C3=O)c[nH]c12` [5H, 2,5-dihydroxy-3-(7-methyl-1H-indol-3-yl)-[1,4]-benzoquinone]: the inhibition at 50 µM came to 60% at Cdc25A, 0% on Cdc25B and 1% at Cdc25C. Moreover, the IC50 at Cdc25B (setting [1]) was found to be 4.2 µM.

Consider `CCCc1cccc2c(C3=C(O)C(=O)C=C(O)C3=O)c[nH]c12` [6A, 2,5-dihydroxy-3-(7-propyl-1H-indol-3-yl)-[1,4]-benzoquinone], for which the inhibition at 50 µM worked out at 93% on Cdc25A, 23% at Cdc25B and 79% on Cdc25C. The IC50 at Cdc25B (setting [1]) turned out to be 14.1 µM.

For `CC(C)=CCc1cccc2c(C3=C(O)C(=O)C=C(O)C3=O)c[nH]c12` [6B, 2,5-dihydroxy-3-(7-prenyl-1H-indol-3-yl)-[1,4]-benzoquinone], the figures for the inhibition at 50 µM at Cdc25A, on Cdc25B and at Cdc25C were 100%, 99% and 84%, respectively. The IC50 at Cdc25B (setting [1]) turned out to be 2.1 µM.

Take `CC(C)=CCC/C(C)=C/Cc1cccc2c(C3=C(O)C(=O)C=C(O)C3=O)c[nH]c12` [6C, 2,5-dihydroxy-3-(7-geranyl-1H-indol-3-yl)-[1,4]-benzoquinone]: the inhibition at 50 µM on Cdc25A amounted to 99%; at Cdc25B, 95%; on Cdc25C it was 96%. Besides, the concentration for half-maximal inhibition (IC50) on Cdc25B (setting [1]) was 0.1 µM; on Cdc25B (setting [2]), 0.5 µM.

On to `CC(C)=CCCC(C)=CCCC(C)=CCc1cccc2c(C3=C(O)C(=O)C=C(O)C3=O)c[nH]c12` [6D, 2,5-dihydroxy-3-(7-farnecyl-1H-indol-3-yl)-[1,4]-benzoquinone], for which the inhibition at 50 µM on Cdc25A came out at 86%; at Cdc25B, 89%; on Cdc25C, 85%. For the same compound, the values for the IC50 on Cdc25B (setting [1]) and at Cdc25B (setting [2]) were 0.1 µM and 0.5 µM, respectively.

Regarding `O=C1C=C(O)C(=O)C(c2c[nH]c3c(Cc4ccccc4)cccc23)=C1O` [6E, 2,5-dihydroxy-3-(7-benzyl-1H-indol-3-yl)-[1,4]-benzoquinone], the inhibition at 50 µM came out at 98% on Cdc25A, 97% on Cdc25B and 98% at Cdc25C. Further, at Cdc25B (setting [1]), the 50% inhibitory concentration (IC50) turned out to be 1.7 µM.

For the compound `Cc1ccccc1Cc1cccc2c(C3=C(O)C(=O)C=C(O)C3=O)c[nH]c12` [6F, 2,5-dihydroxy-3-[7-(2-methyl-benzyl)-1H-indol-3-yl]-[1,4]-benzoquinone], the inhibition at 50 µM at Cdc25A stood at 90%; on Cdc25B, 97%; on Cdc25C, 94%. In addition, the results for the IC50 at Cdc25B (setting [1]) and on Cdc25B (setting [2]) were 0.6 µM and 1.1 µM, respectively.

As for `CC(C)(C)c1cccc2c(C3=C(O)C(=O)C=C(O)C3=O)c[nH]c12` [6G, 2,5-dihydroxy-3-(7-tert-butyl-1H-indol-3-yl)-[1,4]-benzoquinone], the inhibition at 50 µM at Cdc25A amounted to 96%; on Cdc25B, 33%; on Cdc25C, 37%. Besides, the IC50 at Cdc25B (setting [1]) worked out at 2.1 µM.

In the case of `O=C1C=C(O)C(=O)C(c2c[nH]c3c(-c4ccccc4)cccc23)=C1O` [6H, 2,5-dihydroxy-3-(7-phenyl-1H-indol-3-yl)-[1,4]-benzoquinone], the inhibition at 50 µM at Cdc25A stood at 98%; on Cdc25B, 92%; on Cdc25C, 91%. Further, the IC50 at Cdc25B (setting [1]) was 1.4 µM.
